± gives the expanded uncertainty stated by the source.

One series in a line: refractive index (Na D-line) (dimensionless). The settings on record: 293.1 K; 101.33 kPa; Liquid; Standard Abbe refractometry.
As to `CCCCCCCC[n+]1cccc(C)c1C.O=S(=O)([O-])C(F)(F)F`, the refractive index stood at 1.4725 ± 0.0016.
With `CCCC[n+]1cccc(C)c1C.N#C[N-]C#N` [1-butyl-2,3-dimethylpyridinium dicyanamide], the refractive index was 1.5403 ± 0.0016.
As to `CCCC[n+]1cc(C)cc(C)c1C.O=S(=O)([N-]S(=O)(=O)C(F)(F)F)C(F)(F)F`, the refractive index stood at 1.4583 ± 0.0016.
As for `CCCCCCCC[n+]1cc(C)cc(C)c1C.[I-]` [2,3,5-trimethyl-1-octylpyridinium iodide], the refractive index is on record as 1.5776 ± 0.0016.
As to `CCCCCCCC[n+]1cc(C)cc(C)c1.N#C[S-]` [3,5-dimethyl-1-octylpyridinium thiocyanate], the refractive index stood at 1.5415 ± 0.0016.
Still for that read-out and setting: under `CCCCCCCC[n+]1cc(C)cc(C)c1C.O=S(=O)([N-]S(=O)(=O)C(F)(F)F)C(F)(F)F` stands 1.4617 ± 0.0016; under `CCCCCCCC[n+]1cc(C)cc(C)c1.N#C[N-]C#N` [3,5-dimethyl-1-octylpyridinium dicyanamide], 1.5196 ± 0.0016; under `CCCC[n+]1cccc(C)c1C.O=S(=O)([N-]S(=O)(=O)C(F)(F)F)C(F)(F)F`, 1.4497 ± 0.0016.
In the case of `CCCC[n+]1cc(CC)ccc1C.O=S(=O)([N-]S(=O)(=O)C(F)(F)F)C(F)(F)F`, the refractive index worked out at 1.4552 ± 0.0016.
Take `CCCC[n+]1cccc(C)c1C.O=S(=O)([O-])C(F)(F)F`: the refractive index turned out to be 1.4748 ± 0.0016.
The same measure, in the same setting: the same measure for `CCCC[n+]1cc(C)cc(C)c1.N#C[N-]C#N` [1-butyl-3,5-dimethylpyridinium dicyanamide]: 1.5278 ± 0.0016.
As for `CCCCCCCC[n+]1cc(C)cc(C)c1.O=S(=O)([N-]S(=O)(=O)C(F)(F)F)C(F)(F)F`, the refractive index was 1.4526 ± 0.01.
The same measure, in the same setting: the same measure for `CCCC[n+]1cc(C)cc(C)c1.O=S(=O)([N-]S(=O)(=O)C(F)(F)F)C(F)(F)F`: 1.4559 ± 0.0016.
The same measure, in the same setting: the same measure for `CCCCCCCC[n+]1cccc(C)c1C.O=S(=O)([N-]S(=O)(=O)C(F)(F)F)C(F)(F)F`: 1.4571 ± 0.01; for `CCCCCCCC[n+]1cccc(C)c1C.N#C[S-]` [2,3-dimethyl-1-octylpyridinium thiocyanate]: 1.5489 ± 0.0016.

The nature of another series: Molar enthalpy of transition or fusion. Conditions: Crystal; DSC.
Turning to `CCCCCCCC[n+]1cc(CC)ccc1C.[I-]` [5-ethyl-2-methyl-1-octylpyridinium iodide], the “Molar enthalpy of transition or fusion” value amounted to 7.38 ± 0.217 kcal/mol.
Still for that read-out and setting: under `CCCCCCCC[n+]1cc(C)cc(C)c1.N#C[S-]` [3,5-dimethyl-1-octylpyridinium thiocyanate] stands 1.53 ± 0.086 kcal/mol; under `CCCCCCCC[n+]1cc(C)cc(C)c1.F[B-](F)(F)F` [3,5-dimethyl-1-octylpyridinium tetrafluoroborate], 6.71 ± 0.201 kcal/mol; under `CCCC[n+]1cccc(C)c1C.O=S(=O)([O-])C(F)(F)F`, 4.03 ± 0.139 kcal/mol.
For `CCCC[n+]1cc(C)cc(C)c1.O=S(=O)([O-])C(F)(F)F`, the “Molar enthalpy of transition or fusion” value was found to be 6.81 ± 0.203 kcal/mol.
With `CCCC[n+]1cc(C)cc(C)c1.N#C[N-]C#N` [1-butyl-3,5-dimethylpyridinium dicyanamide], the “Molar enthalpy of transition or fusion” value turned out to be 0.92 ± 0.0765 kcal/mol.
On to `CCCCCCCC[n+]1cc(C)cc(C)c1.[I-]` [3,5-dimethyl-1-octylpyridinium iodide], for which the “Molar enthalpy of transition or fusion” value turned out to be 6.08 ± 0.186 kcal/mol.
Turning to `CCCCCCCC[n+]1cc(C)cc(C)c1.O=S(=O)([O-])C(F)(F)F`, the “Molar enthalpy of transition or fusion” value stood at 5.93 ± 0.182 kcal/mol.
Regarding `CCCC[n+]1cc(C)cc(C)c1.N#C[S-]` [1-butyl-3,5-dimethylpyridinium thiocyanate], the “Molar enthalpy of transition or fusion” value was determined as 3.83 ± 0.134 kcal/mol.
Take `CCCC[n+]1cc(C)cc(C)c1C.O=S(=O)([O-])C(F)(F)F`: the “Molar enthalpy of transition or fusion” value is 5.01 ± 0.16 kcal/mol.
With `CCCCCCCC[n+]1cc(C)cc(C)c1C.N#C[S-]` [2,3,5-trimethyl-1-octylpyridinium thiocyanate], the “Molar enthalpy of transition or fusion” value amounted to 3.5 ± 0.127 kcal/mol.

Experiment in the next series: not given
Conditions: 293.1 K; 101.33 kPa; Liquid; Pycnometric method.
As to `CCCCCCCC[n+]1cccc(C)c1C.O=S(=O)([O-])C(F)(F)F`, the mass density was 1180 ± 20 kg/m3.
Consider `CCCC[n+]1cc(C)cc(C)c1C.O=S(=O)([N-]S(=O)(=O)C(F)(F)F)C(F)(F)F`, for which the mass density worked out at 1370 ± 20 kg/m3.
As for `CCCCCCCC[n+]1cc(C)cc(C)c1.N#C[S-]` [3,5-dimethyl-1-octylpyridinium thiocyanate], the mass density was determined as 1000 ± 20 kg/m3.
Same read-out and setting: the same measure for `CCCCCCCC[n+]1cc(C)cc(C)c1C.O=S(=O)([N-]S(=O)(=O)C(F)(F)F)C(F)(F)F`: 1280 ± 20 kg/m3; for `CCCCCCCC[n+]1cc(C)cc(C)c1.N#C[N-]C#N` [3,5-dimethyl-1-octylpyridinium dicyanamide]: 1000 ± 20 kg/m3.
Consider `CCCC[n+]1cccc(C)c1C.O=S(=O)([N-]S(=O)(=O)C(F)(F)F)C(F)(F)F`, for which the mass density is given as 1370 ± 20 kg/m3.
Still for that read-out and setting: the same measure for `CCCCCCCC[n+]1cc(CC)ccc1C.O=S(=O)([N-]S(=O)(=O)C(F)(F)F)C(F)(F)F`: 1280 ± 20 kg/m3.
In the case of `CCCC[n+]1cc(CC)ccc1C.O=S(=O)([N-]S(=O)(=O)C(F)(F)F)C(F)(F)F`, the mass density was 1370 ± 20 kg/m3.
Same read-out and setting: the same measure for `CCCC[n+]1cccc(C)c1C.O=S(=O)([O-])C(F)(F)F`: 1370 ± 20 kg/m3; for `CCCC[n+]1cc(C)cc(C)c1.O=S(=O)([O-])C(F)(F)F`: 1390 ± 20 kg/m3.
Take `CCCCCCCC[n+]1cc(C)cc(C)c1.O=S(=O)([N-]S(=O)(=O)C(F)(F)F)C(F)(F)F`: the mass density stood at 1280 ± 20 kg/m3.
As for `CCCC[n+]1cc(C)cc(C)c1.O=S(=O)([N-]S(=O)(=O)C(F)(F)F)C(F)(F)F`, the mass density is listed as 1390 ± 20 kg/m3.
As for `CCCCCCCC[n+]1cccc(C)c1C.O=S(=O)([N-]S(=O)(=O)C(F)(F)F)C(F)(F)F`, the mass density was determined as 1290 ± 20 kg/m3.
In the case of `CCCCCCCC[n+]1cccc(C)c1C.N#C[S-]` [2,3-dimethyl-1-octylpyridinium thiocyanate], the mass density was 1020 ± 20 kg/m3.

Staying with this series, now noted: Crystal; DTA.
`CCCCCCCC[n+]1cc(CC)ccc1C.[I-]` [5-ethyl-2-methyl-1-octylpyridinium iodide]: the Normal melting temperature turned out to be 87.0 ± 2 °C.
Same read-out and setting: the same measure for `CCCCCCCC[n+]1cc(C)cc(C)c1.N#C[S-]` [3,5-dimethyl-1-octylpyridinium thiocyanate]: -38.0 ± 2 °C; for `CCCCCCCC[n+]1cc(C)cc(C)c1.F[B-](F)(F)F` [3,5-dimethyl-1-octylpyridinium tetrafluoroborate]: 56.0 ± 2 °C.
Consider `CCCC[n+]1cccc(C)c1C.O=S(=O)([O-])C(F)(F)F`, for which the Normal melting temperature turned out to be 17.0 ± 2 °C.
Turning to `CCCC[n+]1cc(C)cc(C)c1.O=S(=O)([O-])C(F)(F)F`, the Normal melting temperature was found to be 91.0 ± 2 °C.
For the molecule `CCCC[n+]1cc(C)cc(C)c1.N#C[N-]C#N` [1-butyl-3,5-dimethylpyridinium dicyanamide], the Normal melting temperature was -1.0 ± 2 °C.
Same read-out and setting: the same measure for `CCCCCCCC[n+]1cc(C)cc(C)c1.[I-]` [3,5-dimethyl-1-octylpyridinium iodide]: 82.0 ± 2 °C; for `CCCCCCCC[n+]1cc(C)cc(C)c1.O=S(=O)([O-])C(F)(F)F`: 76.0 ± 2 °C.
With `CCCC[n+]1cc(C)cc(C)c1.N#C[S-]` [1-butyl-3,5-dimethylpyridinium thiocyanate], the Normal melting temperature came out at 13.0 ± 2 °C.
Consider `CCCCCCCC[n+]1cc(CC)ccc1C.N#C[N-]C#N` [5-ethyl-2-methyl-1-octylpyridinium dicyanamide], for which the Normal melting temperature came out at 53.0 ± 2 °C.
Same read-out and setting: the same measure for `CCCC[n+]1cc(C)cc(C)c1C.O=S(=O)([O-])C(F)(F)F`: 74.0 ± 2 °C; for `CCCCCCCC[n+]1cc(C)cc(C)c1C.N#C[S-]` [2,3,5-trimethyl-1-octylpyridinium thiocyanate]: 20.0 ± 2 °C.

The series is the same for the next values; noted with them: Glass; DTA.
On to `CCCCCCCC[n+]1cccc(C)c1C.O=S(=O)([O-])C(F)(F)F`, for which the Glass transition temperature is -63.0 ± 2 °C.
`CCCCCCCC[n+]1cc(CC)ccc1C.[I-]` [5-ethyl-2-methyl-1-octylpyridinium iodide]: the Glass transition temperature is -33.0 ± 2 °C.
Consider `CCCC[n+]1cccc(C)c1C.N#C[N-]C#N` [1-butyl-2,3-dimethylpyridinium dicyanamide], for which the Glass transition temperature is -72.0 ± 2 °C.
Take `CCCC[n+]1cc(C)cc(C)c1C.O=S(=O)([N-]S(=O)(=O)C(F)(F)F)C(F)(F)F`: the Glass transition temperature was -74.0 ± 2 °C.
Regarding `CCCCCCCC[n+]1cc(C)cc(C)c1C.[I-]` [2,3,5-trimethyl-1-octylpyridinium iodide], the Glass transition temperature is -31.0 ± 2 °C.
In the case of `CCCCCCCC[n+]1cc(C)cc(C)c1.N#C[S-]` [3,5-dimethyl-1-octylpyridinium thiocyanate], the Glass transition temperature is -74.0 ± 2 °C.
Turning to `CCCCCCCC[n+]1cc(C)cc(C)c1C.O=S(=O)([N-]S(=O)(=O)C(F)(F)F)C(F)(F)F`, the Glass transition temperature is -72.0 ± 2 °C.
Take `CCCCCCCC[n+]1cc(C)cc(C)c1C.O=S(=O)([O-])C(F)(F)F`: the Glass transition temperature is -56.0 ± 2 °C.
Take `CCCCCCCC[n+]1cc(C)cc(C)c1.N#C[N-]C#N` [3,5-dimethyl-1-octylpyridinium dicyanamide]: the Glass transition temperature was -78.0 ± 2 °C.
For the molecule `CCCC[n+]1cccc(C)c1C.O=S(=O)([N-]S(=O)(=O)C(F)(F)F)C(F)(F)F`, the Glass transition temperature is -81.0 ± 2 °C.
For `CCCCCCCC[n+]1cc(CC)ccc1C.O=S(=O)([N-]S(=O)(=O)C(F)(F)F)C(F)(F)F`, the Glass transition temperature was -78.0 ± 2 °C.
For `CCCC[n+]1cc(CC)ccc1C.O=S(=O)([N-]S(=O)(=O)C(F)(F)F)C(F)(F)F`, the Glass transition temperature was -81.0 ± 2 °C.
Turning to `CCCC[n+]1cccc(C)c1C.O=S(=O)([O-])C(F)(F)F`, the Glass transition temperature was -69.0 ± 2 °C.
With `CCCC[n+]1cc(C)cc(C)c1.N#C[N-]C#N` [1-butyl-3,5-dimethylpyridinium dicyanamide], the Glass transition temperature was -80.0 ± 2 °C.
The same measure, in the same setting: under `CCCCCCCC[n+]1cc(C)cc(C)c1.[I-]` [3,5-dimethyl-1-octylpyridinium iodide] stands -41.0 ± 2 °C; under `CCCCCCCC[n+]1cc(C)cc(C)c1.O=S(=O)([N-]S(=O)(=O)C(F)(F)F)C(F)(F)F`, -78.0 ± 2 °C; under `CCCC[n+]1cc(C)cc(C)c1.O=S(=O)([N-]S(=O)(=O)C(F)(F)F)C(F)(F)F`, -73.0 ± 2 °C.
For the molecule `CCCC[n+]1cc(C)cc(C)c1.N#C[S-]` [1-butyl-3,5-dimethylpyridinium thiocyanate], the Glass transition temperature is -57.0 ± 2 °C.
In the case of `CCCCCCCC[n+]1cccc(C)c1C.O=S(=O)([N-]S(=O)(=O)C(F)(F)F)C(F)(F)F`, the Glass transition temperature is -70.0 ± 2 °C.
With `CCCCCCCC[n+]1cc(CC)ccc1C.N#C[N-]C#N` [5-ethyl-2-methyl-1-octylpyridinium dicyanamide], the Glass transition temperature is -59.0 ± 2 °C.
With `CCCCCCCC[n+]1cc(C)cc(C)c1C.N#C[S-]` [2,3,5-trimethyl-1-octylpyridinium thiocyanate], the Glass transition temperature was -58.0 ± 2 °C.
As to `CCCCCCCC[n+]1cccc(C)c1C.N#C[S-]` [2,3-dimethyl-1-octylpyridinium thiocyanate], the Glass transition temperature is -65.0 ± 2 °C.

A word on the refractive index: it is the speed of light in vacuum divided by its phase velocity in the sample. A word on the mass density: it is mass per unit of volume.

Values taken from the NIST ThermoML archive (doi:10.1021/je9009283).
